The text below walks through data of US20220289816A1, “IMMUNOTHERAPY WITH B*07 RESTRICTED PEPTIDES AND COMBINATION OF PEPTIDES AGAINST CANCERS AND RELATED METHODS” (Immatics Biotechnologies GmbH, priority 2018, published 2022).

For one test, the system named is CD8+ T cells. The experiment in a line: In vitro immunogenicity: in vitro T-cell priming assay with aAPCs loaded with peptide/MHC complexes and anti-CD28 antibody, pMHC multimer readout. The class given is cell-based, human. The conditions noted are these: Table 10b, pMHC multimer readout after priming of CD8+ T cells. An excerpt:
In order to obtain information regarding the immunogenicity of the TUMAPs of the present invention, the inventors performed investigations using an in vitro T-cell priming assay based on repeated stimulations of CD8+ T cells with artificial antigen presenting cells (aAPCs) loaded with peptide/MHC complexes and anti-CD28 antibody.
In order to perform in vitro stimulations by artificial antigen presenting cells loaded with peptide-MHC complex (pMHC) and anti-CD28 antibody, the inventors first isolated CD8+ T cells from fresh HLA-B*07 leukapheresis products via positive selection using CD8 microbeads (Miltenyi Biotec, Bergisch-Gladbach, Germany) of healthy donors obtained from the University clinics Mannheim, Germany, after informed consent.
PBMCs and isolated CD8+ lymphocytes were incubated in T-cell medium (TCM) until use consisting of RPMI-Glutamax (Invitrogen, Karlsruhe, Germany) supplemented with 10% heat inactivated human AB serum (PAN-Biotech, Aidenbach, Germany), 100 U/ml Penicillin/100 μg/ml Streptomycin (Cambrex, Cologne, Germany), 1 mM sodium pyruvate (CC Pro, Oberdorla, Germany), 20 μg/ml Gentamycin (Cambrex). 2.5 ng/ml IL-7 (PromoCell, Heidelberg, Germany) and 10 U/ml IL-2 (Novartis Pharma, Nürnberg, Germany) were also added to the TCM at this step.
Generation of pMHC/anti-CD28 coated beads, T-cell stimulations and readout was performed in a highly defined in vitro system using four different pMHC molecules per stimulation condition and 8 different pMHC molecules per readout condition.
The purified co-stimulatory mouse IgG2a anti human CD28 Ab 9.3 (Jung et al., 1987) was chemically biotinylated using Sulfo-N-hydroxysuccinimidobiotin as recommended by the manufacturer (Perbio, Bonn, Germany). Beads used were 5.6 μm diameter streptavidin coated polystyrene particles (Bangs Laboratories, Illinois, USA).
800.000 beads/200 μl were coated in 96-well plates in the presence of 4×12.5 ng different biotin-pMHC, washed and 600 ng biotin anti-CD28 were added subsequently in a volume of 200 μl. Stimulations were initiated in 96-well plates by co-incubating 1×10^6 CD8+ T cells with 2×10^5 washed coated beads in 200 μl TCM supplemented with 5 ng/ml IL-12 (PromoCell) for 3 days at 37° C. Half of the medium was then exchanged by fresh TCM supplemented with 80 U/ml IL-2 and incubating was continued for four days at 37° C. This stimulation cycle was performed for a total of three times. For the pMHC multimer readout using 8 different pMHC molecules per condition, a two-dimensional combinatorial coding approach was used as previously described (Andersen et al., 2012) with minor modifications encompassing coupling to five different fluorochromes. Finally, multimeric analyses were performed by staining the cells with Live/dead near IR dye (Invitrogen, Karlsruhe, Germany), CD8-FITC antibody clone SK1 (BD, Heidelberg, Germany) and fluorescent pMHC multimers. For analysis, a BD LSRII SORP cytometer equipped with appropriate lasers and filters was used. Peptide specific cells were calculated as percentage of total CD8+ cells. Evaluation of multimeric analysis was done using the FlowJo software (Tree Star, Oregon, USA). In vitro priming of specific multimer+CD8+ lymphocytes was detected by comparing to negative control stimulations.

The target of a further test is HLA-B*07 (Homo sapiens, UniProt P01889). Put plainly: MHC binding assay (UV-ligand exchange, ELISA of stabilized MHC complexes). The conditions noted are these: peptide exchange yield on HLA-B*07, UV-ligand exchange. Summed up: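 Peptide–MHC complexes were made by UV-ligand exchange, in which a UV-cleavable peptide is replaced by the test peptide. Exchange yield was measured by ELISA of stabilized complexes on streptavidin-coated plates, using HRP anti-β2m detection (1 h, 37 °C), TMB substrate and absorbance at 450 nm.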
Background: An ELISA detects its analyte on a solid surface through an enzyme-linked reagent.

On to “24 (VPRPTSTVGLFL; listed as Homo sapiens) [compound 24]”, for which the “Wells positive [%]” value in the test with CD8+ T cells was “+ (<20% = +)”. Also, in the test with HLA-B*07, the Peptide exchange entry is “++++ (>75% = ++++)”.

For “6 (LPLNSSTSL; listed as Homo sapiens) [compound 6]”, the “Wells positive [%]” value in the test with CD8+ T cells was “+ (<20% = +)”. Also, the Peptide exchange result with HLA-B*07 is reported as “++++ (>75% = ++++)”.

For the substance “59 (KPRTIYSSL; listed as Homo sapiens) [compound 59]”, the “Wells positive [%]” value in the test with CD8+ T cells was “+ (<20% = +)”. For the same substance, the Peptide exchange entry with HLA-B*07 is listed as “++++ (>75% = ++++)”.

As for “68 (FPNEVSVVL; listed as Homo sapiens) [compound 68]”, the “Wells positive [%]” value with CD8+ T cells is given as “++ (20%-49% = ++)”. Further, in the test with HLA-B*07, the Peptide exchange entry is given as “++++ (>75% = ++++)”.

As to “21 (APSRLLEL; listed as Homo sapiens) [compound 21]”, the “Wells positive [%]” value in the test on CD8+ T cells is “+ (<20% = +)”. Also, in the test with HLA-B*07, the Peptide exchange result is “++++ (>75% = ++++)”.

With “49 (APEKARAFL; listed as Homo sapiens) [compound 49]”, the “Wells positive [%]” value in the test on CD8+ T cells was “+ (<20% = +)”. Also, the Peptide exchange result in the test with HLA-B*07 was “+++ (>50 = +++)”.

For the substance “365 (RPKHFLQML; listed as Homo sapiens) [compound 365]”, the “Wells positive [%]” value in the test on CD8+ T cells was “+ (<20% = +)”. The Peptide exchange entry with HLA-B*07 is listed as “++++ (>75% = ++++)”.

As for “361 (SPYGSDRLVQL; listed as Homo sapiens) [compound 361]”, the “Wells positive [%]” value in the test with CD8+ T cells is “+ (<20% = +)”. In addition, the Peptide exchange entry with HLA-B*07 is “++++ (>75% = ++++)”.

Take “64 (VPRPIFSQLYL; listed as Homo sapiens) [compound 64]”: in the test with CD8+ T cells, the “Wells positive [%]” value was “+++ (50%-69% = +++)”. For the same substance, the Peptide exchange result in the test with HLA-B*07 is listed as “++++ (>75% = ++++)”.

For the substance “26 (SPSFSSTLLSL; listed as Homo sapiens) [compound 26]”, the “Wells positive [%]” value in the test with CD8+ T cells was “+ (<20% = +)”. The Peptide exchange entry with HLA-B*07 was “++++ (>75% = ++++)”.
